The values that follow come from patent publication US20060199866A1, “Combination of desoxypeganine and mecamylanine for the treatment of alcohol abuse” (priority 2003, published 2006).

Molecules are shown by their SMILES.

The conditions of data set [1]: cited from earlier work.
A further data set relates to female AA rats. Description: Reduction of alcohol consumption and alcohol preference in alcohol-preferring AA rats (free choice between water and 10% v/v ethanol). It is filed as in vivo, rat. The following applies: for Alcohol solution consumed: 10% aqueous ethanol. The source says: The “AA” strain of rats, bred in Finland, has a genetically determined preference for alcohol, which means that even without pre-treatment with alcohol the animals, when given free choice, prefer alcohol-containing liquids, to alcohol-free liquids to satisfy their fluid requirement. This strain has therefore been used in numerous studies on the pharmacology of alcohol and is extremely well characterized.
Female AA rats (tested for alcohol preference and made available by the Public Health Institute in Helsinki) were housed individually and had free access to standard feed (Altromin 1324 granulate), the ambient temperature was 24±1° C. and the light-dark change was 12/12 hours (the dark period lasting from 6 p.m. to 6 a.m. Each cage contained two identical drinking bottles, of which one contained pure water and the other contained aqueous ethanol (10% v/v). During the 12-hour dark period the animals had access to the drinking bottles and during this period had free choice between the two solutions. To prevent the animals from becoming accustomed to a particular position in the cage, the positions of the bottles were changed daily. Prior to start of the tests, the animals were granted an adaptation phase until a largely constant alcohol and water consumption was ensured.
Deoxypeganine hydrochloride (called “DOP” in the following) was obtained from the Institute for the Pharmacology of Plants (Taschkent, Usbekistan) and supplied by the firm of LTS Lohmann Therapie-Systeme (Andemach, Germany) after checking for identity and purity. Mecamylamine was obtained as a commercial preparation from Sigma-Aldrich GmbH (Munich).
Treatment of the test animals always took place immediately prior to the start of the dark period. Mecamylamine was dissolved in 0.9% aqueous saline and a volume of 5 ml/kg body weight was administered by intraperitoneal injection. DOP was applied as an aqueous solution with a volume of 10 ml/kg by a probang.
In the case of combination treatments, this administration took place within a period of less than 10 minutes. Two treatment-free days were always interposed prior to and following the treatment days.
The parameters recorded were consumption of alcohol, consumption of water and consumption of feed (each in grams), as well as alcohol preference, calculated using the formula: [formula]
The target parameters were in each case traced during the 12 hours of the dark period following treatment, intermediate results were recorded after the first 4 hours and final results after 12 hours. Statistical evaluation of the test data was performed using the t-test for dependent values. The results in respect of consumption of alcohol and alcohol preference are summarized in FIGS. 1 and 2 as well as in Tables 1 and 2.

Data set [2] concerns extracellular dopamine concentration in the nucleus accumbens. The following applies: nucleus accumbens of the rat; baseline dopamine release not impaired; cited from earlier work.
The next data set deals with healthy probands. The following applies: administered two hours prior to consumption of alcoholic beverages; cited from earlier work.
Data set [3] deals with neuronal nicotinic acetylcholine receptors (NACHRs). The settings on record: in pharmacologically relevant concentrations; cited from earlier work.
The target in a further data set is T1, monoamine oxidase A (Homo sapiens, UniProt P21397).
T1 sequence (P21397 1-527): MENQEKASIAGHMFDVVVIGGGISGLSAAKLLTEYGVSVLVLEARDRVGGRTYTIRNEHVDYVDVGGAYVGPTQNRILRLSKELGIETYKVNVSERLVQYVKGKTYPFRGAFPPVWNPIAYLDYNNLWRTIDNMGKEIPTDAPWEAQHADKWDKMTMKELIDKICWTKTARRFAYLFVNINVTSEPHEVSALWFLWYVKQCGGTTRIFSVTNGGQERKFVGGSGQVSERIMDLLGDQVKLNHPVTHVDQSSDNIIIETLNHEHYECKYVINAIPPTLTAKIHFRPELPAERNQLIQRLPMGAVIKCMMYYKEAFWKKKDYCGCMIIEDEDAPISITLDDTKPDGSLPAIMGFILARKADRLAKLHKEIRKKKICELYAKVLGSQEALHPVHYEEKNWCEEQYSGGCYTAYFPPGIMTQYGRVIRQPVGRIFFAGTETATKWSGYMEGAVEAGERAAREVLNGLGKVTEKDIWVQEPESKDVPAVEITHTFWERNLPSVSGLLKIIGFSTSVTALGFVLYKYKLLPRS
The settings on record: cited from earlier work.

Where [4] appears, read: Trial 2, Mec 1 mg/kg i.p., After 4 hours.
Where [5] appears, read: Trial 2, Mec 1 mg/kg i.p., After 8 hours (subsequent eight hours).
Setting [6] is: Trial 2, Mec 1 mg/kg i.p., Total (12 hours).
Where [7] appears, read: Trial 1, DOP 20 mg/kg p.o., After 4 hours.
The mark [8] stands for this setting: Trial 1, DOP 20 mg/kg p.o., After 8 hours (subsequent eight hours).
The mark [9] stands for this setting: Trial 1, DOP 20 mg/kg p.o., Total (12 hours).
Where [10] appears, read: Trial 2, DOP 20 mg/kg p.o., After 4 hours.
The mark [11] stands for this setting: Trial 2, DOP 20 mg/kg p.o., After 8 hours (subsequent eight hours).
Setting [12] is: Trial 2, DOP 20 mg/kg p.o., Total (12 hours).

`CNC1(C)C2CCC(C2)C1(C)C` (racemic) [Mec, reference compound]: in data set [1], the Oral bioavailability is given as roughly 100%. Further, the Alcohol solution consumed in the data set with female AA rats (setting [4]) is given as 5.4 ± 0.5 gram; with female AA rats (setting [5]) it was 10.1 ± 0.4 gram; in the data set with female AA rats (setting [6]), 15.5 ± 0.5 gram. The “Effect on consumption of alcohol and alcohol preference” value in the data set on female AA rats (Mecamylamine 1 mg/kg i.p. administered singly) was “no effect”; in the data set on female AA rats (Mecamylamine 1 mg/kg i.p. combined with DOP 20 mg/kg p.o.), “potentiated the effect of DOP on both parameters”; with female AA rats (mecamylamine 0.5 mg/kg i.p. combined with DOP 20 mg/kg p.o.), “without effect with regard to alcohol”; with female AA rats (mecamylamine 0.75 mg/kg i.p. combined with DOP 20 mg/kg p.o.), “without effect with regard to alcohol”; in the data set with female AA rats (mecamylamine dosage increased to 1.5 mg/kg i.p., combined with DOP 20 mg/kg p.o.), “potentiating effect could not be increased further”. Moreover, the figures for the Alcohol preference in the data set with female AA rats (setting [4]), in the data set on female AA rats (setting [5]) and in the data set on female AA rats (setting [6]) were 85.3 ± 4.2%, 87.8 ± 3.1% and 86.3 ± 2.6%, respectively. In data set [2], the “Blockade of alcohol-induced increase in extracellular dopamine concentration” value is reported as “completely blocks”. Besides, in the data set on healthy probands, the “Effect on the centrally stimulating psychotropic effect of alcohol” value is “reduced the centrally stimulating psychotropic effect”.

Consider `c1ccc2c(c1)CN1CCCC1=N2` [DOP, 1,2,3,9-tetrahydropyrrollo[2,1-b]chinazoline], for which the “Binding to NACHRs” value in data set [3] is listed as “does not bind to NACHRs”. Further, the Alcohol solution consumed in the data set with female AA rats (setting [7]) is 5.2 ± 0.6 gram; in the data set with female AA rats (setting [8]) it was 10.2 ± 0.6 gram; in the data set on female AA rats (setting [9]), 15.4 ± 1.1 gram; in the data set with female AA rats (setting [10]), 5.8 ± 0.6 gram; in the data set on female AA rats (setting [11]) it was 10.7 ± 0.5 gram; in the data set with female AA rats (setting [12]), 16.6 ± 0.6 gram. In the data set on female AA rats (DOP 20 mg/kg p.o., preferably within the first 4 hours after administration), the “Effect on consumption of alcohol and alcohol preference” value was “lowered the consumption of alcohol and alcohol preference”. Moreover, the Alcohol preference in the data set on female AA rats (setting [7]) was 57.4 ± 7.1%; in the data set with female AA rats (setting [8]), 82.0 ± 4.0%; with female AA rats (setting [9]), 70.5 ± 4.5%; in the data set on female AA rats (setting [10]), 55.6 ± 7.6%; in the data set on female AA rats (setting [11]), 88.0 ± 2.1%; in the data set on female AA rats (setting [12]), 72.7 ± 4.3%. On monoamine oxidase A, the “Inhibition of monoamine oxidase A” value is “inhibits monoamine oxidase A”.

As for `O=C1CC[C@@]2(O)[C@H]3Cc4ccc(O)c5c4[C@@]2(CCN3CC2CC2)[C@H]1O5` [naltrexone], the Oral bioavailability entry in data set [1] is “approx. 5%”.
